Patent EP1066315B1 (University of Dundee, priority 1998, dated 2008)
Residues, ends and D or L forms follow the SMILES beside them. *: point of attachment. Fmoc = O=C(OCC1c2ccccc2-c2ccccc21)*

Tested on: Cathepsin S
Assay: Hydrolysis of cathepsin S substrate by B cell lysosomal fractions
Format: biochemical, human
Settings: Fig 3b
Method: The invention will now be described by reference to the following Examples and Figures wherein • Figure 1: Processing of TTCF by a leupeptin-insensitive cysteine endopeptidase activity. (a) TTCF was digested in vitro in the presence of disrupted lysosomes (1-2 µg) in the presence or absence of iodoacetamide (1 mM), leupeptin, E64 or pepstatin (each at 0.1 mg/ml). Digestions were in 0.1 M NH4 acetate at pH 4.5 or Na2HPO4, pH 6.0 or 7.0. After 4 hours at 37°C, the reactions were separated by Tris-tricine SDS-PAGE and stained with Coomassie Blue. (b) Cleavage sites: TTCF digestion products were separated by SDS PAGE and electrophoretically transferred to nitrocellulose membrane. Individual fragments numbered 1-6 were subjected to 5 cycles of Edman degradation. N-terminal sequence obtained is shown in bold following upstream residues from TTCF (tetanus toxin numbering). […] (c) Each fraction was analysed by SDS-PAGE and Western blotting. […] Release of 7-amino-4-methyl coumarin was measured after 10, 20 or 30 minutes. […] At different times the cells were washed, fixed in 0.05 % glutaraldehyde and antigen presentation measured using proliferation of different autologous TTCF-specific T cell clones. c, AEP pre-processing of TTCF speeds antigen presentation. […] Presentation was measured after 60 minutes of antigen pulsing using EBV B cells. […]

Compound: C[C@H](NC(=O)OCC1c2ccccc2-c2ccccc21)C(=O)N[C@@H](CCC(=O)O)C(=O)N[C@@H](CC(N)=O)C(=O)N[C@@H](CCCCN)C(N)=O [AENK, Ala-Glu-Asn-Lys-NH] (Fmoc-AENK-NH2)
- hydrolysis of the Cathepsin S substrate Z-Val-Val-Arg-HNMec: had no effect
